Experimental data as given in US11389385B2, “Resorcinol derivatives for their cosmetic use” (L'OREAL, priority 2017, dated 2022).
Read-outs that look alike come from different tables or passages of the source.

Columns and labels:
normal human melanocytes = assay: Depigmenting activity: reduction of melanin production in normal human melanocytes in vitro; assay type: cell-based; conditions: Melanocyte, 72 h, 72 hours incubation, maximum concentration tested 200 μM, read-out: IC50 (concentration at which a 50% decrease in melanin synthesis is achieved)
Description: The measurement of the depigmenting activity (reduction of melanin production) of compounds of formula (I) was performed by assaying normal human melanocytes in vitro as follows.
First, normal human melanocytes are cultured and distributed in a multiwell plate. After 24 hours, the culture medium was replaced with a medium containing the compounds of formula (I) to be evaluated. The cells were incubated 72 hours before measurement of the final optical density, which measures the amount of melanin produced by the melanocytes. A dose effect was performed using a wide concentration range of the compounds evaluated. Thus, by making the concentrations and the melanin measurements correspond, it was possible to determine an IC50 in μM: concentration at which a 50% decrease in melanin synthesis is achieved.
Various test campaigns were conducted and the test results are collated in the tables below.

[1] = test system: coculture of keratinocytes and melanocytes; assay: Coculture experiment: melanogenesis-modulating effect and cytotoxicity; assay type: cell-based; conditions: for IC50: melanin optical density, read-out: IC50 (concentration for which 50% of the melanin synthesis is inhibited)
Description: The melanogenesis-modulating effect of compound D was measured according to the method described in patent FR-A-2734825, and also in the article by R. Schmidt, P. Krien and M. Régnier, Anal. Biochem., 235(2), 113-18, 1996. This test is performed on a coculture of keratinocytes and melanocytes.
For the test compounds, the following were determined: • the cytotoxicity, • the inhibitory activity on melanin synthesis, by estimating the melanin optical density.
The IC50 values (concentration for which 50% of the melanin synthesis is inhibited) were determined.
The test was also performed with the compound 5-[(E)-2-(4-hydroxyphenyl)ethenyl]benzene-1,3-diol described in the prior art patent application JP01038009,

[2] = values marked *: different campaigns each time
[3] = coculture of keratinocytes and melanocytes

| Structure (SMILES) | IC50 (normal human melanocytes; melanin by optical density) [µM] | IC50 (normal human melanocytes; [2]) [µM] | cytotoxicity [1, 3] | IC50 [1, 3] [µM] | cytotoxicity [1] |
| --- | --- | --- | --- | --- | --- |
| CC(Cc1nccs1)c1ccc(O)cc1O (stereo not shown) [Compound B, 4-[1-(1,3-thiazol-2-yl)propan-2-yl]benzene-1,3-diol] | 5.9 | 1.07 | – | – | – |
| Oc1ccc(/C=C/c2cc(O)cc(O)c2)cc1 [Compound of the prior art, 5-[(E)-2-(4-hydroxyphenyl)ethenyl]benzene-1,3-diol, reference compound] | 8.18 | – | Non-cytotoxic | 2.77 | – |
| CC(Cc1nc2ccccc2[nH]1)c1ccc(O)cc1O (stereo not shown) [Compound D, 4-[1-(1H-benzimidazol-2-yl)propan-2-yl]benzene-1,3-diol] | 3.7 | 6.7 | – | 1.38 | non-cytotoxic |
| CC(Cc1ncc[nH]1)c1ccc(O)cc1O (stereo not shown) [Compound A, 4-[1-(1H-imidazol-2-yl)propan-2-yl]benzene-1,3-diol] | – | 3.7 | – | – | – |
